# Measurements: publication PMC8301452, “Targeting of Protein Kinase CK2 in Acute Myeloid Leukemia Cells Using the Clinical-Grade Synthetic-Peptide CIGB-300” (Biomedicines, 2021)
# Bridge positions count the residues as written; N and C are the ends. Square brackets hold non-standard residues; d marks the D form. Peptide text beside a SMILES is read from it. βAla = NCCC(=O)O
# Key:
# [1] = tested on: primary cells from AML patients' bone marrow samples; experiment: Annexin V/PI staining, flow cytometry; type: cell-based, Human; settings: primary cells from the majority of AML patients' bone marrow samples; 40 µM, 48 h
# Description: Bone marrow samples from five AML patients with high leukemia involvement were collected in accordance with the Declaration of Helsinki after informed consent and ethical approval of the Clinical Research Board from the Center for Genetic Engineering and Biotechnology (CIGB, Havana, Cuba) (Table S1). Mononuclear cells from bone marrow samples were isolated using Ficoll-Paque (GE Healthcare, Chicago, IL, USA) density gradient centrifugation. Cells were maintained under standard cell culture conditions.
# Viability of AML cells was measured using FITC Annexin V Apoptosis Detection Kit I (BD Biosciences, San Jose, CA, USA). Briefly, cell lines were incubated with 40 µM CIGB-300 for 3 and 5 h, while primary cells were incubated during 48 h. Following incubation, cells were washed twice with cold PBS and resuspended in binding buffer (1×) at a final concentration of 1 × 10^6 cells/mL. Subsequently, 5 µL of FITC Annexin V and PI were added, and cell suspensions were incubated for 15 min at room temperature in the dark. Flow cytometric analysis of stained cells was performed in Partec CyFlow Space instrument (Sysmex Partec GmbH, Gorlitz, Germany), and FlowJo software (v7.6.1) (BD, Ashland, OR, USA) was used for data analysis and visualization.
# HL-60 cells [2] = experiment: Cell cycle analysis by PI staining and flow cytometry; type: cell-based, Human; settings: 40 µM, 24 h
# Procedure: (§1) For cell cycle analysis, AML cells were incubated with 40 µM CIGB-300 during 24 h. Following treatment with the peptide, cells were collected by centrifugation, washed with PBS, and fixed at 4 °C for 30 min with ice-cold 70% ethanol. After fixation, cells were treated with DNase-free RNase A (Sigma, St. Louis, MO, USA) and subsequently stained at 37 °C for 20 min with 50 µg/mL PI solution (Sigma, St. Louis, MO, USA). Stained cells were analyzed in the abovementioned Partec CyFlow Space flow cytometry, and FlowJo Software (v7.6.1) was used for data processing and visualization.
# OCI-AML3 cells = experiment: as above; type: cell-based, Human; settings: 40 µM, 24 h
# Procedure: as §1
# NPM1 S125 = experiment: Western blot of CK2-mediated NPM1 phosphorylation; type: cell-based, Human; settings: both AML cell lines (HL-60, OCI-AML3), 40 µM
# Procedure: Cells were lysed in RIPA buffer containing protease/phosphatase inhibitor (Thermo Fisher Scientific, Waltham, MA, USA), and equal amounts of protein were resolved in 12.5% SDS-PAGE [46]. Next, proteins were transferred to a nitrocellulose membrane and immunoblotted with the following antibodies according to instructions from the manufacturer: NPM1, p-NPM1 (S125), and CK2α (Abcam, Cambridge, United Kingdom) and β-actin (Sigma, St. Louis, MO, USA). Detection was performed with peroxidase-conjugated anti-mouse or anti-rabbit IgG (Sigma, St. Louis, MO, USA), and signal was developed using SuperSignal West Pico Chemiluminescent Substrate (Thermo Fisher Scientific, Waltham, MA, USA).
# Figure S2. CIGB-300 peptide impairs CK2-mediated phosphorylation of NPM1 in AML cells. Cells treated with
# 40 µM of CIGB-300 during the indicated times were analyzed by western blot using phospho-specific and total […]
# [3] = tested on: HL-60 cells transduced with LV-pLG or LV-shRNA; experiment: PI staining cytotoxicity in NPM1 knock-down cells; type: cell-based, Human; settings: 20 or 40 µM, 5 h, n = 3
# Procedure: Cells were infected with HIV-based third-generation lentiviral particles according to experimental conditions previously described. […]. After virus production and subsequent titration, cells were infected by spinoculation in the presence of polybrene (8 µg/mL) and at 10× multiplicity of infection. On the next day, fresh medium was added, and the cells were allowed to recover for another 48 h. Finally, infected cells were analyzed by flow cytometry and Western blot for evaluation of GFP expression and NPM1 protein levels, respectively.
# Figure 4 Lentiviral vector-mediated knock-down of NPM1 in AML cells: (A) Flow cytometry analysis of GFP expression in transduced HL-60 cells at day 7 post-infection. Percentage of GFP+ cells was determined on live-cell population (R1 gate in dot plots); (B) Immunoblots from HL-60 transduced cells showing NPM1 protein knock-down in LV-shRNA infected cells. Densitometry analysis values of NPM1 bands were normalized to β-actin and then to untransduced cells; (C) GFP expression levels and (D) viability of transduced HL-60 cells were followed by flow cytometry during three weeks post-infection; (E) Sensibility of transduced cells toward the cytotoxic effect of CIGB-300 was evaluated by PI staining. Cells were incubated with 20 or 40 µM of CIGB-300 for 5 h, stained with PI solution, and then analyzed by flow cytometry. […]
# CK2α catalytic subunit = target: T1, CK2α catalytic subunit (Homo sapiens, UniProt P68400); experiment: In vivo pull-down followed by immunodetection; type: binding; settings: AML cells, immunoblot
# T1 construct: endogenous in cells
# T1 sequence (P68400 whole entry): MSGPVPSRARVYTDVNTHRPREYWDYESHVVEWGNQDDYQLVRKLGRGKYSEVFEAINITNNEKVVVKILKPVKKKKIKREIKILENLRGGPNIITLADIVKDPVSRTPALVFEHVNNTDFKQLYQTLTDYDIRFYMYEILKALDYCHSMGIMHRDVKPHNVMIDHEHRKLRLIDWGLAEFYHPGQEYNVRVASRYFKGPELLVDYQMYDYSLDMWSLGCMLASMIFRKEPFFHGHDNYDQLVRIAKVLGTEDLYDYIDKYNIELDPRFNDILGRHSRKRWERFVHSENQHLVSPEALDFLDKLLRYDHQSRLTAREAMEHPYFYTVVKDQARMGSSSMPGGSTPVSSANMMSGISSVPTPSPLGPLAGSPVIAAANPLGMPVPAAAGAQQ
# Procedure: For in vivo pull-down assays, CIGB-300 with N-terminal biotin tag (CIGB-300-B) was added to AML cells at a final concentration of 40 µM and incubated for 30 min. Subsequently, cells were collected, washed, and lysed in hypotonic PBS solution (0.1×) containing 1 mM DTT (Sigma, St. Louis, MO, USA) and complete protease inhibitor (Roche, Basel, Switzerland) by eight freeze–thaw (liquid nitrogen/37 °C) cycles. Cellular lysates were cleared by centrifugation, and 300 µg of total protein was added to 30 µL of pre-equilibrated streptavidin–sepharose matrix (GE Healthcare, Chicago, IL, USA). Following 1 h at 4 °C, the matrix was collected by centrifugation and extensively washed with PBS solution (1×) containing 1 mM DTT. Proteins bound to streptavidin–sepharose matrix were digested with trypsin (Promega, Madison, WI, USA) during 16 h or eluted for western blot analysis. In parallel, untreated cells were subjected to the same experimental procedure to identify those proteins non-specifically bound to streptavidin–sepharose matrix.
# Cells were lysed in RIPA buffer containing protease/phosphatase inhibitor (Thermo Fisher Scientific, Waltham, MA, USA), and equal amounts of protein were resolved in 12.5% SDS-PAGE [46]. […]
# [4] = tested on: CK2 substrates in HL-60 cells; experiment: Phosphoproteomic analysis; type: cell-based, Human; settings: 40 µM, 30 min, three replicates
# Procedure: (§2) Sample preparation, phosphopeptide enrichment, and nanoLC-MS/MS for phosphoproteomic analysis of AML cells treated or not with 40 µM CIGB-300 during 30 min were conducted as previously described. Briefly, three replicates from each condition were processed by multienzyme digestion filter-aided sample preparation (MED-FASP) with overnight lys-C and tryptic digestions and the phosphopeptides enriched by TiO2 chromatography. Phosphopeptides were later injected through an EASY-nLC 1200 system into a QExactive HF mass spectrometer (Thermo Scientific, USA) using a home-made column ([…], 20 cm length), and were separated with a gradient from 5% buffer B (0.1% formic acid in acetonitrile) up to 30% in 45 min, 30–60% in 5 min, and 60–95% in 5 min more.
# (§3) Data processing and quantification were performed in MaxQuant software (v1.6.2.10) and Perseus computational platform (v1.6.2.2). Phosphopeptides dataset was filtered of reverse and potential contaminants hits, and only phosphosites with localization probability above 0.75 were retained for further analysis. Additionally, only those phosphopeptides represented in each group were considered, and differences in phosphosites occupancy higher than 25% were selected as significant changes. Enzyme–substrate relations were retrieved using post-translational modification resource iPTMnet and web-based tool KEA2 [48, 49]. In addition to well-documented substrates, we searched for candidate CK2 substrates based on the presence of the CK2 consensus sequence, the enzyme–substrate predictions retrieved from NetworKIN database, the dataset of high confidence CK2 substrates reported by Bian et al., and the phosphoproteins that interact with protein kinase CK2 according to the Metascape database.
# [5] = tested on: CK2 substrates in OCI-AML3 cells; experiment: Phosphoproteomic analysis; type: cell-based, Human; settings: 40 µM, 30 min, three replicates
# Procedure: as §2, §3
# [6] = tested on: chronic and acute T-cell lymphocytic leukemia (CLL and T-ALL); settings: read-out: IC50, estimated values; cited from earlier work
# Procedure: In contrast with solid tumor cells, which display a heterogenous sensitivity profile, leukemia cells are more sensitive to CIGB-300 anti-proliferative effects. Indeed, in a panel containing human lung, cervix, prostate, and colon cancer cell lines, the IC50 values for CIGB-300 ranged between 20 and 300 µM [32], while in chronic and acute T-cell lymphocytic leukemia (CLL and T-ALL), the estimated values were all below 40 µM [34, 44].
# HL-60 cells [7] = tested on: HL-60 cells; parameters: method as in PMID 24283803, PMID 33562780; settings: cited from earlier work
structure (smiles),measurement,setting,value
CSCC[C@@H]1NC(=O)[C@H](Cc2c[nH]c3ccccc23)NC(=O)[C@@H](NC(=O)CCNC(=O)[C@H](CCC(N)=O)NC(=O)[C@@H]2CCCN2C(=O)[C@@H]2CCCN2C(=O)[C@H](CCCNC(=N)N)NC(=O)[C@H](CCCNC(=N)N)NC(=O)[C@H](CCCNC(=N)N)NC(=O)[C@H](CCC(N)=O)NC(=O)[C@H](CCCNC(=N)N)NC(=O)[C@H](CCCNC(=N)N)NC(=O)[C@H](CCCCN)NC(=O)[C@H](CCCCN)NC(=O)[C@H](CCCNC(=N)N)NC(=O)CN)CSSC[C@@H](C(=O)O)NC(=O)[C@H]([C@@H](C)O)NC(=O)CNC(=O)[C@H](CC(C)C)NC(=O)[C@H](Cc2c[nH]cn2)NC(=O)[C@H](CCCNC(=N)N)NC(=O)[C@@H]2CCCN2C(=O)[C@H](CO)NC1=O [CIGB-300] (H-GRKKRRQRRRPPQ[βAla]CWMSPRHLGTC-OH; disulfide 15-25; N-terminus and C-terminus assumed),effect on viability (Annexin V-FITC/PI),[1],promoted apoptosis
same,effect on cell cycle progression,HL-60 cells [2],accumulation of HL-60 cells in S phase
same,effect on cell cycle progression,OCI-AML3 cells,no change in cell cycle distribution
same,CK2-mediated phosphorylation at S125 residue of NPM1,NPM1 S125,inhibition of CK2-mediated phosphorylation
same,"sensibility toward cytotoxic effect, LV-shRNA (NPM1 knock-down roughly 85%) vs LV-pLG",[3],no differential sensibility
same,interaction with CK2α subunit,CK2α catalytic subunit,clear interaction
same,"Occupancy Treated–Control, ABCF1 S140 (Q8NE71)",[4],−0.2693 ^2
same,"Occupancy Treated–Control, AP3B1 S276 (O00203)",[4],−0.427
same,"Occupancy Treated–Control, BCLAF1 S397 (Q9NYF8)",[4],−0.2902 ^1
same,"Occupancy Treated–Control, C1orf52 S158 (Q8N6N3)",[4],−0.3645
same,"Occupancy Treated–Control, DDX24 S82 (Q9GZR7)",[4],−0.3284
same,"Occupancy Treated–Control, DKC1 S485 (O60832)",[4],−0.3777
same,"Occupancy Treated–Control, DKC1 S494 (O60832)",[4],−0.3312 ^1
same,"Occupancy Treated–Control, EIF3C S39 (Q99613)",[4],−0.2738 ^2
same,"Occupancy Treated–Control, EIF4G1 S1198 (Q04637)",[4],−0.276
same,"Occupancy Treated–Control, FKBP15 S346 (Q5T1M5)",[4],−0.25
same,"Occupancy Treated–Control, HIRIP3 S196 (Q9BW71)",[4],−0.2842
same,"Occupancy Treated–Control, HIRIP3 S199 (Q9BW71)",[4],−0.2649
same,"Occupancy Treated–Control, HMGA1 S44 (P17096)",[4],−0.3177
same,"Occupancy Treated–Control, LEMD3 S144 (Q9Y2U8)",[4],−0.3252
same,"Occupancy Treated–Control, LYN S13 (P07948)",[4],−0.3987
same,"Occupancy Treated–Control, M6PR S267 (P20645)",[4],−0.26
same,"Occupancy Treated–Control, MCM2 S41 (P49736)",[4],−0.421 ^2
same,"Occupancy Treated–Control, NAP1L4 S125 (Q99733)",[4],−0.3398
same,"Occupancy Treated–Control, PABPC1 T319 (P11940)",[4],−0.2931
same,"Occupancy Treated–Control, PAK2 T169 (Q13177)",[4],−0.2963
same,"Occupancy Treated–Control, PNN S381 (Q9H307)",[4],−0.2998
same,"Occupancy Treated–Control, SEPTIN2 S218 (Q15019)",[4],"−0.2677 ^1, 2"
same,"Occupancy Treated–Control, SRSF11 S464 (Q05519)",[4],−0.3301
same,"Occupancy Treated–Control, ST13 S75 (P50502)",[4],−0.2852
same,"Occupancy Treated–Control, STMN1 S63 (P16949)",[4],−0.3357 ^2
same,"Occupancy Treated–Control, THRAP3 S211 (Q9Y2W1)",[4],−0.2914
same,"Occupancy Treated–Control, TMPO S66 (P42166)",[4],−0.4836
same,"Occupancy Treated–Control, TMPO S67 (P42166)",[4],−0.4836
same,"Occupancy Treated–Control, TOP2A S1106 (P11388)",[4],−0.2854
same,"Occupancy Treated–Control, XRCC6 S520 (P12956)",[4],−0.3763
same,"Occupancy Treated–Control, BCLAF1 S397 (Q9NYF8)",[5],−0.3056 ^1
same,"Occupancy Treated–Control, BRCA1 S1164 (P38398)",[5],−0.3932
same,"Occupancy Treated–Control, CEP170 S1112 (Q5SW79)",[5],−0.4366
same,"Occupancy Treated–Control, DKC1 S494 (O60832)",[5],−0.2948 ^1
same,"Occupancy Treated–Control, EIF5B S214 (O60841)",[5],−0.2868
same,"Occupancy Treated–Control, HNRNPC S220 (P07910)",[5],−0.4698
same,"Occupancy Treated–Control, HNRNPC S225 (P07910)",[5],−0.4597
same,"Occupancy Treated–Control, MCM2 S13 (P49736)",[5],−0.4061 ^2
same,"Occupancy Treated–Control, MCM2 S139 (P49736)",[5],−0.3422 ^2
same,"Occupancy Treated–Control, NAP1L4 S7 (Q99733)",[5],−0.2719
same,"Occupancy Treated–Control, NOP56 S520 (O00567)",[5],−0.3705
same,"Occupancy Treated–Control, SEPTIN2 S218 (Q15019)",[5],"−0.4261 ^1, 2"
same,"Occupancy Treated–Control, SRSF11 S433 (Q05519)",[5],−0.3794
same,"Occupancy Treated–Control, STT3B S499 (Q8TCJ2)",[5],−0.3445
same,"Occupancy Treated–Control, TOP2A S1247 (P11388)",[5],−0.3351
same,"Occupancy Treated–Control, TOP2B S1550 (Q02880)",[5],−0.2936
same,IC50,[6],< 40 µM
O=C(O)c1ccc2c(c1)nc(Nc1cccc(Cl)c1)c1ccncc12 [CX-4945],response toward cytotoxic effect,HL-60 cells [7],refractoriness
